What was measured:
[1] = Cytotoxicity against mouse J774.A1 cells assessed as cell viability at 10 uM incubated for 5 hrs by Cell Titer-Glo Luminescent Cell Viability assay relative to control; assay type: toxicity, cell-based; settings: read-out: Activity
HepG2 = test: Cytotoxicity against human HepG2 cells by CellTiter-Glo 2.0 assay; assay type: functional, cell-based
HeLa S3 = test: Cytotoxicity against human HeLa S3 cells by CellTiter-Glo 2.0 assay; assay type: functional, cell-based
NHDF = test: Cytotoxicity against human NHDF cells by CellTiter-Glo 2.0 assay; assay type: toxicity, cell-based
HL-60 = test: Cytotoxicity against human HL-60 cells by CellTiter-Glo 2.0 assay; assay type: functional, cell-based
HEK293 = test: Cytotoxicity against AC1 expressed HEK293 cells by CellTiter-Glo 2.0 assay relative to control; assay type: toxicity, cell-based; design: concentration or dose not given beside the values; settings: human
[2] = Inhibition of Bordetella pertussis Adenylate cyclase toxin in mouse J774.A1 cells preincubated for 5 hrs followed by ACT addition and measured after 30 mins by CatchPointcAMP immunoassay method; assay type: cell-based
CCRF-CEM = test: Cytotoxicity against human CCRF-CEM cells by CellTiter-Glo 2.0 assay; assay type: functional, cell-based
[3] = molecular target: T1, Calmodulin-sensitive adenylate cyclase (Bacillus anthracis, UniProt P40136); test: Inhibition of Bacillus anthracis Edema factor
T1 sequence (P40136 whole entry): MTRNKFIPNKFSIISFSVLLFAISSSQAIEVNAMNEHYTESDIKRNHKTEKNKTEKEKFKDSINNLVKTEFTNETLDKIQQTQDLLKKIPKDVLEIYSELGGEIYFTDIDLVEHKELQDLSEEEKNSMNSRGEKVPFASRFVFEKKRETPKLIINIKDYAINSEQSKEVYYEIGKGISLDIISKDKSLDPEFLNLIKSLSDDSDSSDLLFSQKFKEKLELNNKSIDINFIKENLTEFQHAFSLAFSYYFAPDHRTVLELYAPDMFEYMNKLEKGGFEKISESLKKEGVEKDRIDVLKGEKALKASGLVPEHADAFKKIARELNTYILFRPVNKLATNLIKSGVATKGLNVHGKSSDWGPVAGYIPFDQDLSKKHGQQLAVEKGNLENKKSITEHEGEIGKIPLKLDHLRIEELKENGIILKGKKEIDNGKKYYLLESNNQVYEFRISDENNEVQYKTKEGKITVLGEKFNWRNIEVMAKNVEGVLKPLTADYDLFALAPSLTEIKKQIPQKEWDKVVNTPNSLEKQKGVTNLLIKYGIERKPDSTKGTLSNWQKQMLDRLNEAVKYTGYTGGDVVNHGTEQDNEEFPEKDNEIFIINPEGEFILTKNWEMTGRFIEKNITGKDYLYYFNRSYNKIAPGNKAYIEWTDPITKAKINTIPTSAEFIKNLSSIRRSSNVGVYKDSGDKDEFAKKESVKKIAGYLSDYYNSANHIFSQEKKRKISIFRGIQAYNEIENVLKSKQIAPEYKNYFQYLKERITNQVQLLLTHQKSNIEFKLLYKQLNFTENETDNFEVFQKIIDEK

SMILES	viability at 5 h, 10 µM [1]	IC50 (HepG2)	IC50 (HeLa S3)	IC50 (NHDF)	IC50 (HL-60)	Activity (HEK293)	IC50 [2]	IC50 (CCRF-CEM)	IC50 [3]
C=C(C)c1cn(CCOCP(=O)(N[C@@H](Cc2ccccc2)C(=O)OC(C)C)N[C@@H](Cc2ccccc2)C(=O)OC(C)C)c2ncnc(N)c12	81%	8.73 µM	> 10 µM	> 10 µM	4.62 µM	31%	> 10 µM	5.64 µM	–
CC(C)OC(=O)[C@H](Cc1ccccc1)NP(=O)(COCCn1cc(C(C)C)c2c(N)ncnc21)N[C@@H](Cc1ccccc1)C(=O)OC(C)C	121%	> 10 µM	> 10 µM	> 10 µM	7.34 µM	51%	> 10 µM	6.54 µM	–
CC(C)OC(=O)[C@H](Cc1ccccc1)NP(=O)(COCCn1cc(-c2cccc(C(N)=O)c2)c2c(N)ncnc21)N[C@@H](Cc1ccccc1)C(=O)OC(C)C	85%	> 10 µM	> 10 µM	> 10 µM	5.75 µM	94%	2.5 µM	> 10 µM	–
CC(C)OC(=O)[C@H](Cc1ccccc1)NP(=O)(COCCn1cc(-c2cccc(C#N)c2)c2c(N)ncnc21)N[C@@H](Cc1ccccc1)C(=O)OC(C)C	111%	9.43 µM	10.1 µM	> 10 µM	3.22 µM	29%	1.42 µM	3.85 µM	–
CC(C)OC(=O)[C@H](Cc1ccccc1)NP(=O)(COCCn1cc(-c2ccccc2)c2c(N)ncnc21)N[C@@H](Cc1ccccc1)C(=O)OC(C)C	82%	6.58 µM	5.28 µM	> 10 µM	4.73 µM	-18%	13.3 µM	4.74 µM	–
CC(C)OC(=O)[C@H](Cc1ccccc1)NP(=O)(COCCn1cc(-c2ccc([N+](=O)[O-])cc2)c2c(N)ncnc21)N[C@@H](Cc1ccccc1)C(=O)OC(C)C	113%	> 10 µM	2.95 µM	> 10 µM	4.58 µM	97%	1.26 µM	4.08 µM	–
Cc1cn(CCOCP(=O)(O)OP(=O)(O)OP(=O)(O)O)c2ncnc(N)c12	–	–	–	–	–	–	0.062 µM	–	0.108 µM
CCOC(=O)[C@H](C)NP(=O)(COCCn1cc(-c2ccc(OC)cc2)c2c(N)ncnc21)Oc1ccccc1 (stereo partly specified)	104%	> 10 µM	> 10 µM	> 10 µM	> 10 µM	–	5.41 µM	> 10 µM	–
CC(C)OC(=O)[C@H](Cc1ccccc1)NP(=O)(COCCn1cc(-c2ccccn2)c2c(N)ncnc21)N[C@@H](Cc1ccccc1)C(=O)OC(C)C	104%	> 10 µM	7.86 µM	> 10 µM	5.18 µM	-17%	1.06 µM	5.77 µM	–
CC(C)OC(=O)[C@H](Cc1ccccc1)NP(=O)(COCCn1cc(-c2cccc(-c3nn[nH]n3)c2)c2c(N)ncnc21)N[C@@H](Cc1ccccc1)C(=O)OC(C)C	94%	> 10 µM	> 10 µM	> 10 µM	> 10 µM	110%	> 10 µM	> 10 µM	–
COc1ccc(-c2cn(CCOCP(=O)(N[C@@H](Cc3ccccc3)C(=O)OC(C)C)N[C@@H](Cc3ccccc3)C(=O)OC(C)C)c3ncnc(N)c23)cc1	112%	> 10 µM	–	> 10 µM	6.52 µM	-17%	1.49 µM	5.81 µM	–
Cc1cn(CCOCP(=O)(N[C@@H](Cc2ccccc2)C(=O)OC(C)C)N[C@@H](Cc2ccccc2)C(=O)OC(C)C)c2ncnc(N)c12	112%	9.73 µM	> 10 µM	> 10 µM	7.33 µM	93%	1.47 µM	> 10 µM	–
CC(C)OC(=O)[C@H](Cc1ccccc1)NP(=O)(COCCn1cc(C#Cc2ccccc2)c2c(N)ncnc21)N[C@@H](Cc1ccccc1)C(=O)OC(C)C	116%	7.24 µM	5.3 µM	> 10 µM	4.75 µM	-9%	> 10 µM	4.49 µM	–
